This passage reports IC50 results from PMC3044726, “Identification of Human IKK-2 Inhibitors of Natural Origin (Part I): Modeling of the IKK-2 Kinase Domain, Virtual Screening and Activity Assays” (PLoS ONE, 2011).

This assay concerns the target T1, hIKK-2 (Homo sapiens, UniProt O14920).
T1 construct: gene IKBKB
T1 sequence (O14920 1-756): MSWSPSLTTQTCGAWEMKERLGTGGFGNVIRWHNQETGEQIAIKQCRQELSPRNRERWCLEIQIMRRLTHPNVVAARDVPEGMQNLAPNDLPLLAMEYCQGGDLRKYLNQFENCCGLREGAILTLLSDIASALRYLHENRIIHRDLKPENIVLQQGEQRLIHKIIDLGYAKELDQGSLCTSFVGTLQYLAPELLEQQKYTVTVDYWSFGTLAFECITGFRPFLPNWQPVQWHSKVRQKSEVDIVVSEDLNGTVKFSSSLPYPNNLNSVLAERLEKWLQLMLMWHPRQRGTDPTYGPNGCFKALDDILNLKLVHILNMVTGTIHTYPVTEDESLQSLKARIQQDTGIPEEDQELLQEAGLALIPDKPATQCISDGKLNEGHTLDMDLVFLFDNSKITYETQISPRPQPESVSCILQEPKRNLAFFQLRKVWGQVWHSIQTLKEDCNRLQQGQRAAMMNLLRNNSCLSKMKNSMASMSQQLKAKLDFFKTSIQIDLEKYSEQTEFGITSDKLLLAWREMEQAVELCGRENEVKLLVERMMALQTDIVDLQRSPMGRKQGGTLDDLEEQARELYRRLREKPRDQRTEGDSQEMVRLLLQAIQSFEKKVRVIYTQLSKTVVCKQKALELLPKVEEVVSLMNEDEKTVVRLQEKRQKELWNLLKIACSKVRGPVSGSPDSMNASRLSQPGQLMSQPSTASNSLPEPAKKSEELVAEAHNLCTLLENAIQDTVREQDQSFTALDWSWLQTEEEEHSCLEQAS
Put plainly: K-LISA IKKβ ELISA kinase assay with GST-IκBα substrate. Type of assay: biochemical. A general note: In an ELISA, binding on a coated surface is turned into a signal by an enzyme label.

The structures appear in SMILES notation. Read-outs that look alike come from different tables or passages of the source.

Regarding `OC[C@@H]1CCCN2CCCC[C@H]12` [ZINC01669260, lupinine], the IC50 (read-out: IC50) came to 3.32 mM.

Regarding `CCOc1ccc2nc3cc(N)ccc3c(N)c2c1` [ZINC03871389, ethacridine], the concentration for half-maximal inhibition (IC50) (read-out: IC50) was found to be 0.184 mM.

As for `COCc1c(CN)cnc(C)c1N` [ZINC03683886], the midpoint of inhibition, the IC50, lay at 2.07 mM.

What is called IC50 is the point on the concentration scale where inhibition reaches its midpoint.
